Patent US9463213B2, “Use of degarelix in the treatment of endometriosis and related diseases” (priority 2012, dated 2016)

Legend:
[1] = tested on: women with recurrent endometriosis after surgery; assay: Example 1: clinical comparison of single-dose degarelix with monthly leuprolide acetate in recurrent endometriosis; type: in vivo; conditions: for Disappearance of pain: degarelix acetate 80 mg single s.c. injection vs leuprolide acetate 3.75 mg s.c. monthly, 15 patients per group; for Disappearance of symptoms at the end of treatment / Recurrence six months after the end of treatment / CA-125 after 2 months / CA-125 at the end of treatment: degarelix acetate 80 mg single s.c. vs leuprolide acetate 3.75 mg s.c. monthly; for CA-125 after 2 months / CA-125 at the end of treatment: plasma
Procedure: In this experiment the use of degarelix was studied, administered in a dose of 80 mg in a single infusion, with an effect which lasted for at least 4 months (period of amenorrhea and hypoestrogenism), comparing this with the effect of treatment with leuprolide acetate GnRH-agonist administered in a dose of 3.75 mg per month for at least 6 months in women with recurrent endometriosis after surgery and post-surgery treatment with estro-progestins. 30 women divided into two groups of 15 patients each, with recurrent endometriosis after previous surgery for endometriotic cysts, in whom new ovarian cysts, pelvic pain and a rise in plasma CA125 values occurred, were included in the study. One group of patients was treated with 80 mg degarelix acetate in a single subcutaneous injection (Firmagon 80 mg, company Ferring) on the first day of the menstrual cycle, while the other group was treated with leuprolide acetate (Enantone 3.75, Takeda) in a dose of 3.75 mg subcutaneously every month for four months. Both the groups were monitored for FSH, LH, estradiol, androstenedione, dehydroandrostenedione (DEA) and CA125, with plasma doses every fifteen days starting from the day following administration of the drug. Pelvic pain levels experienced by the patients during treatment and during the six months following suspension of the treatment were also evaluated using a “Visual Analogue Scale” (VAS) in which the patient expressed the level of pain experienced on a 10 cm scale.

[2] = tested on: patients suffering from endometriosis with bilateral ovarian cysts; assay: Example 2: degarelix before assisted reproduction in patients with bilateral endometriotic ovarian cysts; type: in vivo
Procedure: In this experiment, 12 patients suffering from endometriosis with the presence of bilateral ovarian cysts who wished to receive a cycle of assisted reproduction underwent, prior to undergoing controlled ovarian hyperstimulation, treatment with 80 mg degarelix acetate in a single administration 4 months before the assisted reproduction cycle, in order to evaluate the efficacy of this treatment on the reduction and/or disappearance of the ovarian cysts without performing surgery. 12 patients with bilateral endometriotic cysts (cysts larger than 3 cm) and high plasma CA125 (over 60 IU/ml) were selected. 80 mg degarelix acetate (Firmagon 80 mg) was injected into the patients on the first day of the cycle and the patients were then monitored for FSH, LH and estradiol values every 20 days, with an echography check to evaluate the dimensions of the cysts.

[3] = tested on: patients with severe endometriosis; conditions: 80 mg monthly for three months; cited from earlier work
healthy women volunteers = conditions: injection of 2.5 mg; cited from earlier work
[4] = 80 mg single dose vs leuprolide acetate, P<0.01

Row | Compound | Duration of effect (period of amenorrhea and hypoestrogenism) ([1]; 80 mg in a single infusion) | Control of painful symptoms (VAS) compared with GnRH agonist (FIG. 5) ([1]; 80 mg single dose vs leuprolide acetate) | Estradiol and androgen levels compared with GnRH agonist (FIGS. 2-4) [1, 4] | Suppression of LH and FSH compared with GnRH agonist (FIG. 1) [1, 4] | Disappearance of pain [1] | Disappearance of symptoms at the end of treatment [1] [%] | Recurrence six months after the end of treatment [1] [%] | CA-125 after 2 months [1] | CA-125 at the end of treatment [1] | Duration of stable suppression of FSH, LH, estradiol and androgen levels ([1]; single administration of 80 mg) [months] | Volume of the endometriotic cysts ([2]; 80 mg single administration, 3 months after treatment, echography) | Levels of FSH, LH and estradiol 3 months after treatment (FIG. 6) ([2]; 80 mg single administration, 12 patients) | Patients with complete disappearance of endometriotic cysts ([2]; 80 mg single administration, of 12 patients) | Pregnancy achieved ([2]; after 80 mg single administration and assisted reproduction cycle, of 12 patients) [cases] | Recurrence of endometriotic cysts during ovarian stimulation with oocyte sampling ([2]; after 80 mg single administration, all patients) | Effect on pain and endometriosis recurrence [3] | Effect on LH and FSH release (healthy women volunteers) | Time required for LH and FSH to return to base levels (healthy women volunteers)
1 | degarelix acetate | at least 4 months | better control of painful symptoms | lower levels of estradiol | More rapid and stable suppression of LH and FSH | 1.4 ± 0.3 | 93.3 | 6.6 | 32.4 ± 21.4 | 12.6 ± 10.1 | 4 | decreased significantly | low levels | at least 4 patients | 5 | without showing any recurrence of endometriotic cysts | reduction of pain and endometriosis recurrence | immediate suppression of LH and FSH release | approximately 7 days
2 | CCNC(=O)[C@@H]1CCCN1C(=O)[C@H](CCCNC(=N)N)NC(=O)[C@H](CC(C)C)NC(=O)[C@@H](CC(C)C)NC(=O)[C@H](Cc1ccc(O)cc1)NC(=O)[C@H](CO)NC(=O)[C@H](Cc1c[nH]c2ccccc12)NC(=O)[C@H](Cc1c[nH]cn1)NC(=O)[C@@H]1CCC(=O)N1 [Leuprolide acetate, leuprolide acetate] | – | – | – | – | 3.8 ± 0.8 | 60.0 | 33.3 | 52.6 ± 31.5 | 34.0 ± 12.7 | – | – | – | – | – | – | – | – | –
